Laboratory results as given in the supplement of paper PMC10307832.

Columns and labels:
Assay in all cases: relative viability (nuclei count vs DMSO), 5 days (fraction); higher = more cells survive
[1] = compound: CC1=CC=C(C=C1)C(=O)CN2C3=C(CCCC3)SC2=N [Pifithrin_alpha] + CS(=O)(=O)N1CCN(Cc2cc3nc(-c4cccc5[nH]ncc45)nc(N4CCOCC4)c3s2)CC1 [Pictilisib] (partner 1 µM)
Outline: (§1)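 Relative viability is defined as nuclei in treated wells over nuclei in vehicle wells. Duplicate plates were run and medians reported. Lung cancer cell lines in 1536-well plates were dosed by pin tool one day after seeding, with one drug or with a fixed anchor-drug dose plus five library-drug doses (not always all listed) in √10 steps, and nuclei were counted after 5 days.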

Axitinib + Pictilisib = compound: CNC(=O)c1ccccc1Sc1ccc2c(/C=C/c3ccccn3)n[nH]c2c1 [Axitinib] + CS(=O)(=O)N1CCN(Cc2cc3nc(-c4cccc5[nH]ncc45)nc(N4CCOCC4)c3s2)CC1 [Pictilisib] (partner 1 µM)
Outline: as §1

Bemcentinib + Pictilisib = compound: Nc1nc(Nc2ccc3c(c2)CC[C@@H](N2CCCC2)CC3)nn1-c1cc2c(nn1)-c1ccccc1CCC2 [Bemcentinib] + CS(=O)(=O)N1CCN(Cc2cc3nc(-c4cccc5[nH]ncc45)nc(N4CCOCC4)c3s2)CC1 [Pictilisib] (partner 1 µM)
Outline: as §1

[2] = compound: CC1=CC=C(C=C1)C(=O)CN2C3=C(CCCC3)SC2=N [Pifithrin_alpha] + Nc1ncn([C@H]2C[C@H](O)[C@@H](CO)O2)c(=O)n1 [Decitabine] (partner 2 µM)
Outline: as §1

Row | Cell Line | relative viability ([1]; first compound 1 µM) | relative viability ([1]; first compound 3.162 µM) | relative viability ([1]; first compound 10 µM) | relative viability ([1]; first compound 31.62 µM) | relative viability ([1]; first compound 100 µM) | relative viability (Axitinib + Pictilisib; first compound 0.005 µM) | relative viability (Axitinib + Pictilisib; first compound 0.01581 µM) | relative viability (Axitinib + Pictilisib; first compound 0.05 µM) | relative viability (Axitinib + Pictilisib; first compound 0.1581 µM) | relative viability (Axitinib + Pictilisib; first compound 0.5 µM) | relative viability (Bemcentinib + Pictilisib; first compound 0.04 µM) | relative viability (Bemcentinib + Pictilisib; first compound 0.1265 µM) | relative viability (Bemcentinib + Pictilisib; first compound 0.4 µM) | relative viability (Bemcentinib + Pictilisib; first compound 1.265 µM) | relative viability (Bemcentinib + Pictilisib; first compound 4 µM) | relative viability ([2]; first compound 1 µM) | relative viability ([2]; first compound 3.162 µM) | relative viability ([2]; first compound 10 µM) | relative viability ([2]; first compound 31.62 µM) | relative viability ([2]; first compound 100 µM)
1 | NCI-H1650 | 0.286 | 0.44 | 0.53 | 0.353 | 0.468 | 0.624 | 0.36 | 0.644 | 0.529 | 0.585 | 0.526 | 0.519 | 0.548 | 0.631 | 0.731 | 0.382 | 0.442 | 0.593 | 0.32 | 0.406
2 | NCI-H2170 | 0.271 | 0.302 | 0.274 | 0.278 | 0.33 | 0.316 | 0.268 | 0.327 | 0.305 | 0.259 | 0.267 | 0.324 | 0.352 | 0.259 | 0.311 | 0.48 | 0.453 | 0.476 | 0.427 | 0.453
3 | NCI-H441 | 0.552 | 0.582 | 0.624 | 0.436 | 0.438 | 0.456 | 0.563 | 0.413 | 0.571 | 0.542 | 0.572 | 0.53 | 0.575 | 0.509 | 0.399 | 0.233 | 0.294 | 0.212 |  | 0.301
4 | NCI-H2087 | 0.74 | 0.872 | 0.894 | 0.453 | 0.757 | 0.982 | 0.848 | 0.992 | 0.856 | 0.769 | 0.813 | 0.973 | 1.03 | 0.813 | 0.89 | 0.252 | 0.291 | 0.262 | 0.203 | 0.267
5 | RERF-LC-KJ | 0.535 | 0.397 | 0.503 | 0.451 | 0.432 | 0.583 | 0.654 | 0.544 | 0.603 | 0.51 | 0.535 | 0.575 | 0.652 | 0.562 | 0.572 | 0.681 | 0.621 | 0.562 | 0.382 | 0.451
6 | NCI-H1437 | 0.371 | 0.406 | 0.44 | 0.249 | 0.222 | 0.437 | 0.399 | 0.459 | 0.418 | 0.402 | 0.457 | 0.479 | 0.418 | 0.409 | 0.448 | 0.626 | 0.605 | 0.563 | 0.586 | 0.364
7 | NCI-H1651 | 0.687 | 0.541 | 0.66 | 0.365 | 0.528 | 0.631 | 0.503 | 0.665 | 0.576 | 0.567 | 0.622 | 0.678 | 0.64 | 0.451 | 0.739 | 0.166 | 0.642 | 0.569 | 0.537 | 0.635
8 | PC-14 | 0.764 | 0.674 | 0.645 | 0.495 | 0.563 | 0.919 | 0.699 | 0.676 | 0.731 | 0.834 | 0.651 | 0.792 | 0.628 | 0.509 | 0.704 | 0.236 | 0.184 | 0.219 | 0.155 | 0.123
9 | NCI-H1792 | 0.156 | 0.244 | 0.205 | 0.178 | 0.217 | 0.311 | 0.251 | 0.213 | 0.275 | 0.271 | 0.3 | 0.281 | 0.238 | 0.337 | 0.288 | 0.457 | 0.48 | 0.624 |  | 0.423
10 | NCI-H1666 | 0.351 | 0.296 | 0.277 | 0.238 | 0.293 | 0.414 | 0.459 | 0.433 | 0.512 | 0.584 | 0.313 | 0.596 | 0.427 | 0.43 | 0.55 | 0.523 | 0.595 | 0.557 | 0.615 | 0.569
11 | NCI-H661 | 0.322 | 0.391 | 0.359 | 0.472 | 0.333 | 0.387 | 0.422 | 0.339 | 0.46 | 0.375 | 0.318 | 0.449 | 0.422 | 0.357 | 0.369 | 0.536 | 0.591 | 0.587 | 0.542 | 0.469
12 | LK-2 | 0.631 | 0.599 | 0.589 |  | 0.62 | 0.556 | 0.434 | 0.512 | 0.506 | 0.486 | 0.526 | 0.608 | 0.583 | 0.748 | 0.611 | 0.202 | 0.266 | 0.309 | 0.224 | 0.316
13 | HCC-44 | 0.433 | 0.475 | 0.539 | 0.408 | 0.423 | 0.56 | 0.734 | 0.682 | 0.695 | 0.546 | 0.698 | 0.618 | 0.599 | 0.625 | 0.651 | 0.859 | 0.919 | 0.812 | 0.779 | 0.857
14 | PC-3 [JPC-3] | 0.547 | 0.757 | 0.629 | 0.569 | 0.597 | 0.729 |  | 0.672 | 0.715 | 0.853 | 0.724 | 0.933 | 0.802 | 0.764 | 0.732 |  | 0.742 |  | 0.714 | 0.642
15 | LC-2-ad | 0.414 | 0.382 | 0.489 | 0.304 | 0.18 | 0.505 | 0.516 | 0.458 | 0.54 | 0.469 | 0.456 | 0.536 | 0.553 | 0.426 | 0.424 | 0.786 | 0.73 | 0.811 | 0.683 | 0.675
16 | ChaGo-K-1 | 0.431 | 0.653 | 0.631 | 0.473 | 0.559 | 0.725 | 0.562 | 0.878 | 0.643 | 0.541 | 0.579 | 0.733 | 0.795 | 0.426 | 0.434 | 0.491 | 0.533 | 0.515 | 0.407 | 0.496
